# Several values for one entry are separate records, joined by “and”; a condition that tells them apart may be missing. Equal values may be shown once. Read-outs that look alike come from different tables or passages of the source. No end group written: not given here.
# What was measured:
# E. faecium LMG16003 [1] = assay: Antimicrobial activity of TL19 mutants (agar spot assay, Fig. 5d); assay type: cell-based, Enterococcus faecium; settings: 1 nmol peptide, after removal of the leader peptide with NisP (Fig. 5d)
# Excerpt: A highly conserved glutamate in HalA1 (Glu22) is essential for binding to its target lipid II ([12], [15], [16]). Mutating the glutamate residue in the CTLTXEC motif to alanine or glutamine completely abolished antibacterial activity ([15]). […] Therefore, either Glu34 in TL19 was mutated to Ala, Thr2 in TL19 was mutated to Asp, or both mutations were installed together in the same TL19 variant. […] NisC-catalyzed cyclization of the mutated peptides was investigated using CDAP treatment under reducing conditions followed by MS analysis.
# FIG 5 Importance of both lipid II binding motifs for antimicrobial activity against E. faecium LMG16003. MALDI-TOF MS data of TL19 or TL19 mutants before (blue) and after (red) treated with CDAP. (a) TL19 (2Asp); (b) TL19 (34Ala); (c) TL19 (2Asp, 34Ala). (d) Antimicrobial activity for TL19 mutants against E. faecium LMG16003: 1, TL19 (1 nmol); 2, TL19 (2Asp) (1 nmol); 3, TL19 (34Ala) (1 nmol); 4, TL19 (2Asp, 34Ala) (1 nmol); 5, TL19 (2Asp) (1 nmol) plus TL19 (34Ala) (1 nmol); 6, negative control (buffer).
# E. faecium 4Tom19 = assay type: cell-based, Enterococcus faecium
# Method: (§1) MIC was evaluated by broth microdilution according to the standard guidelines ([45]). Briefly, the test medium was cation-adjusted Mueller-Hinton broth (MHB). Cell concentration was adjusted to approximately 5 × 10^5 cells per ml. After 20 h of incubation at 37°C, the MIC was defined as the lowest concentration of antibiotic with no visible growth. Each experiment was performed in triplicates.
# E. faecium 6Tom18 = assay type: cell-based, Enterococcus faecium
# Method: as §1
# [2] = system: E. faecium ATCC E1162 (ARE); assay type: cell-based, Enterococcus faecium
# Method: as §1
# [3] = system: E. faecium ATCC E1321 (AGRE); assay type: cell-based, Enterococcus faecium
# Method: as §1
# [4] = system: E. faecium ATCC HF50105 (ETVRE); assay type: cell-based, Enterococcus faecium
# Method: as §1
# [5] = system: E. faecium ATCC TX0082 (AEKVRE); assay type: cell-based, Enterococcus faecium
# Method: as §1
# [6] = system: E. faecium ATCC TX0133a04; assay type: cell-based, Enterococcus faecium
# Method: as §1
# E. faecium LMG11423 = assay type: cell-based, Enterococcus faecium
# Method: as §1
# [7] = system: E. faecium LMG16003 (VRE); assay type: cell-based, Enterococcus faecium
# Method: as §1
# [8] = system: E. faecalis LMG16216 (VRE); assay type: cell-based, Enterococcus faecalis
# Method: as §1
# E. faecalis LMG8222 = assay type: cell-based, Enterococcus faecalis
# Method: as §1
# E. faecalis LMGV583 = assay type: cell-based, Enterococcus faecalis
# Method: as §1
# S. aureus LMG10147 = assay type: cell-based, Staphylococcus aureus
# Method: as §1
# B. cereus ATCC 10987 = assay type: cell-based, Bacillus cereus
# Method: as §1
# B. cereus ATCC 14579 = assay type: cell-based, Bacillus cereus
# Method: as §1
# A. baumannii LMG01041 = assay type: cell-based, Acinetobacter baumannii
# Method: as §1
# Escherichia coli GSK 12 = assay: MIC by broth microdilution; assay type: cell-based; settings: cation-adjusted MHB, approx. 5 × 10^5 cells per ml, 20 h, 37°C, triplicates
# Method: as §1
# [9] = system: E. faecium (LMG16003; vancomycin-resistant strain); assay: Time-kill assay; assay type: cell-based, Enterococcus faecium; settings: MHB, 37°C, CFU counts, triplicates
# Method: This assay was performed according to a previously described procedure ([29]). An overnight culture of cells (Enterococcus faecium LMG 16003; vancomycin-resistant strain) was diluted 50-fold in MHB and incubated at 37°C with aeration at 220 rpm. Bacteria were grown to an OD of 0.5, and then the cell concentration was adjusted to ≈5 × 10^5 cells per ml. Bacteria were then challenged with nisin (20 μM), nisin(1-22) (600 μM), or TL19 (10 μM) in culture tubes at 37°C and 220 rpm. (peptides at 10× MIC, a desirable concentration at the site of infection). Bacteria not treated with peptides were used as a negative control. At desired time points, 100-μl aliquots were taken, centrifuged at 8,000 × g for 2 min, and resuspended in 100 μl of MHB. Ten-fold serially diluted samples were plated on Mueller-Hinton agar (MHA) plates. After incubating at 37°C overnight, colonies were counted and CFU per milliliter was calculated. Each experiment was performed in triplicates.
# [10] = system: E. faecium LMG16003 cells; assay: Propidium iodide assay for membrane pore formation; assay type: cell-based, Enterococcus faecium; settings: peptide 3 μM, propidium iodide 2.5 μg per ml, monitored for 3 h, excitation 533 nm, emission 617 nm
# Method: The excitation and emission wavelengths on the fluorescence spectrometer were adjusted to 533 nm and 617 nm, respectively. E. faecium LMG16003 was grown to an OD600 of 0.6. To this cell suspension, propidium iodide (final concentration, 2.5 μg per ml) was added and incubated for 5 min. Peptides were added to a final concentration of 3 μM. Fluorescence was monitored for 3 h, with the peptide added after ∼60 s.
# [11] = system: E. faecium ATCC U0317 (ACRE); assay: MIC by broth microdilution; assay type: cell-based, Enterococcus faecium; settings: cation-adjusted MHB, approx. 5 × 10^5 cells per ml, 20 h, 37°C, triplicates
# Method: as §1
# Micrococcus flavus = assay: Screening of antibacterial activity by spot-on-lawn assay; assay type: cell-based; settings: TCA-precipitated peptide 5 μl plus 1 μl NisP, GM17 0.8% agar, 30°C overnight (Fig. S1)
# Method: To assess the antibacterial activity of TCA-precipitated samples on a agar plate, an overnight culture of Micrococcus flavus was added to the GM17 containing 0.8% (wt/vol) agar (at 42°C), and then the mixture was poured onto the plates, 30 ml per plate. After that, 5 μl of the peptides together with 1 μl of NisP were added to the plates, and the plates were transferred to the 30°C incubator for incubation overnight.
# E. faecium = assay: MIC comparison across E. faecium strains; assay type: cell-based, Enterococcus faecium; settings: from MIC values; for higher antibacterial activity than nisin(1-22): antibiotic-resistant E. faecium
# Method: as §1
# [12] = Complex formation with lipid II by thin-layer chromatography; assay type: binding; settings: TLC, lipid II-lys or lipid II-dap (Fig. 4b1 and b2), 4 nmol, 30 min at 25°C
# Method: Purified lipid II-lys or lipid II-dap (4 nmol) was incubated in chloroform-methanol-water (2:3:1), in the presence of increasing TL19 concentrations (TL19/lipid II molar ratios ranging from 0.3 to 2:1) in a total volume of 30 μl. After incubating for 30 min at 25°C, the mixture was analyzed by thin-layer chromatography using chloroform-methanol-water-ammonia (88:48:10:1), and the spots were visualized by iodine vapor ([20], [26]).
# E. faecium LMG16003 [13] = assay: Spot-on-lawn assay to measure peptide-lipid II complex formation; assay type: cell-based, Enterococcus faecium; settings: peptide 1 nmol, either lipid II-lys or lipid II-dap
# Method: An overnight cultured E. faecium LMG16003 was added to 0.8% MHA (wt/vol; temperature, 42°C) at a final concentration of 0.1% (vol/vol), and then the mixture was poured onto the plates (30 ml for each). Binding of peptide and lipid II was further evaluated by incubating purified lipid II with peptide in various molar ratios ranging from 0.5 to 2 with respect to the peptides (1 nmol). Subsequently, a spot-on-lawn assay was used to analyze the antimicrobial activity. After the lipid II solution drops with peptide had dried, the plates were transferred to the 37°C incubator for overnight incubation.
# [14] = broth microdilution, cation-adjusted MHB, approx. 5 × 10^5 cells per ml, 20 h, 37°C, triplicates
compound,measurement,setting,value
"IDSISLCTPGCKTGALMGCNMKTATCHYCTLTVECMPSCN [TL19 (2Asp), TL19 variant in which Thr2 was mutated to Asp]",antimicrobial activity relative to TL19,E. faecium LMG16003 [1],almost abolished the antimicrobial activity
"IDSISLCTPGCKTGALMGCNMKTATCHYCTLTVACMPSCN [TL19 (2Asp, 34Ala)]",antimicrobial activity relative to TL19,E. faecium LMG16003 [1],decreased or completely abolished the antimicrobial activity
"C=C1NC(=O)[C@H]([C@@H](C)CC)NC(=O)[C@H](NC(=O)/C(=C/C)NC(=O)[C@@H](N)[C@@H](C)CC)CSC[C@@H](C(=O)N[C@H]2C(=O)N3CCC[C@H]3C(=O)NCC(=O)N[C@H](C(=O)N[C@@H](CCCCN)C(=O)N[C@H]3C(=O)NCC(=O)N[C@@H](C)C(=O)N[C@@H](CC(C)C)C(=O)N[C@@H](CCSC)C(=O)NCC(=O)N[C@H](C(=O)N[C@@H](CC(N)=O)C(=O)N[C@@H](CCSC)C(=O)N[C@@H](CCCCN)C(=O)O)CS[C@H]3C)CS[C@H]2C)NC(=O)[C@H](CC(C)C)NC1=O [Nisin(1-22), reference compound]",MIC,"E. faecium 4Tom19; 4Tom19, 20 h",60 µM
same,MIC,E. faecium 4Tom19; [14],128 µg/mL
same,MIC,"E. faecium 6Tom18; 6Tom18, 20 h",30 µM
same,MIC,E. faecium 6Tom18; [14],64 µg/mL
same,MIC,"[2]; ATCC E1162, 20 h",> 60 µM
same,MIC,[2]; [14],> 128 µg/mL
same,MIC,"[3]; ATCC E1321, 20 h",60 µM
same,MIC,[3]; [14],128 µg/mL
same,MIC,"[4]; ATCC HF50105, 20 h",30 µM
same,MIC,[4]; [14],64 µg/mL
same,MIC,"[5]; ATCC TX0082, 20 h",60 µM
same,MIC,[5]; [14],128 µg/mL
same,MIC,"[6]; ATCC TX0133, 20 h",60 µM
same,MIC,[6]; [14],128 µg/mL
same,MIC,"E. faecium LMG11423; LMG11423, 20 h",60 µM
same,MIC,E. faecium LMG11423; [14],128 µg/mL
same,MIC,"[7]; LMG16003, 20 h",60 µM
same,MIC,[7]; [14],128 µg/mL
same,MIC,"[8]; LMG16216, 20 h",> 60 µM
same,MIC,[8]; [14],> 128 µg/mL
same,MIC,"E. faecalis LMG8222; LMG8222, 20 h",> 60 µM
same,MIC,E. faecalis LMG8222; [14],> 128 µg/mL
same,MIC,"E. faecalis LMGV583; LMGV583, 20 h",> 60 µM
same,MIC,E. faecalis LMGV583; [14],> 128 µg/mL
same,MIC,"S. aureus LMG10147; LMG10147, 20 h",15 µM
same,MIC,S. aureus LMG10147; [14],32 µg/mL
same,MIC,"B. cereus ATCC 10987; ATCC 10987, 20 h",> 60 µM
same,MIC,B. cereus ATCC 10987; [14],> 128 µg/mL
same,MIC,"B. cereus ATCC 14579; ATCC 14579, 20 h",30 µM
same,MIC,B. cereus ATCC 14579; [14],64 µg/mL
same,MIC,"A. baumannii LMG01041; LMG01041, 20 h",> 60 µM
same,MIC,A. baumannii LMG01041; [14],> 128 µg/mL
same,MIC,Escherichia coli GSK 12,> 128 µg/mL
same,effect on population of viable cells within 11 h postexposition,[9]; 10× MIC: nisin(1-22) 600 μM,did not reduce the population of viable cells
same,killing in 48 h,[9]; 10× MIC: nisin(1-22) 600 μM,only slight killing was observed
same,pore formation (propidium iodide fluorescence increase),[10],neither TL19 nor nisin(1-22) caused any fluorescence increase
"ITSISLCTPGCKTGALMGCNMKTATCHCTLTVECMPSCN (also: bicyclic or more (positions not given here)) [TL17, incompletely modified, not all rings formed]",MIC,[11],7.5 μM and 29 μg/ml
same,MIC,Escherichia coli GSK 12,> 15 μM and > 58 μg/ml
same,antimicrobial activity against Micrococcus flavus,Micrococcus flavus,potent antimicrobial activity
same,higher antibacterial activity than nisin(1-22),E. faecium,16 fold
"ITSISLCTPGCKTGALMGCNMKTATCHYCTLTVECMPSCN (also: bicyclic or more (positions not given here)) [TL19, lantibiotic with seven thioether rings]",MIC,[11],1.9 μM and 7.6 μg/ml
same,MIC,Escherichia coli GSK 12,> 15 μM and > 60 μg/ml
same,antimicrobial activity against Micrococcus flavus,Micrococcus flavus,potent antimicrobial activity
same,time to complete killing,"[9]; 10× MIC: nisin 20 μM, TL19 10 μM, ≈5 × 10^5 cells per ml",24 h
same,pore formation (propidium iodide fluorescence increase),[10],neither TL19 nor nisin(1-22) caused any fluorescence increase
same,lipid II migration at a low ratio (0.3:1) of TL19 to lipid II,[12],lipid II migration was significantly inhibited
same,antibacterial activity upon addition of lipid II at a 1:1 (peptide/lipid II) ratio,E. faecium LMG16003 [13],still showed potent antibacterial activity
same,higher antibacterial activity than TL17,E. faecium; E. faecium,4 fold
same,higher antibacterial activity than nisin(1-22),E. faecium,64 fold
ITSISLCTPGCKTGALMGCNMKTATCHYCTLTVACMPSCN [TL19 (34Ala)],antimicrobial activity relative to TL19,E. faecium LMG16003 [1],severely reduced the antimicrobial activity
